Experimental data from patent US9468670B2, “Melatonin-based treatment and diagnosis of bile duct disease” (Texas A&M University System, priority 2011, dated 2016).

Experiments:
large cholangiocytes = experiment: Secretin-stimulated cAMP levels (RIA) in purified large cholangiocytes from treated BDL rats; assay type: in vivo, rat; conditions: cholangiocytes from BDL rats treated with melatonin for 1 week; secretin 100 nM, 5 minutes
Method: The effect of secretin on cAMP levels was evaluated in purified large cholangiocytes and bile and bicarbonate secretion was evaluated in bile fistula rats, two functional indices of cholangiocyte hyperplasia (Alpini et al., 1998; Alpini et al., 1988; LeSage et al., 1999). Following purification, large cholangiocytes (1×10^5 cells) were incubated for 1 hour at 37° C. (Ishii et al., 1989) before stimulation with 0.2% bovine serum albumin (BSA) or secretin (100 nM) for 5 minutes at room temperature (Kato et al., 1992; LeSage et al., 1999; LeSage et al., 2004) before evaluation of cAMP levels by RIA (Alpini et al., 1998; Kato et al., 1992; LeSage et al., 1999; LeSage et al., 2004). For the studies of biliary physiology, after anesthesia, rats were surgically prepared for bile collection as described by us (Alpini et al., 1988). When steady-state bile flow was reached (60-70 minutes from the intravenous infusion of Krebs-Ringer-Henseleit solution, KRH), the animals were infused with secretin (100 nM) (LeSage et al., 1999; LeSage et al., 2004) for 30 minutes followed by IV infusion of KRH for 30 minutes (LeSage et al., 1999; LeSage et al., 2004). Bicarbonate concentration in bile was determined by an ABL™ 520 Blood Gas System (Radiometer Medical A/S, Copenhagen, Denmark).

[1] = tested on: PER1, BMAL1, CRY1, CLOCK, MT1 and MT2; experiment: FACS analysis of clock proteins and MT1/MT2 in large mouse cholangiocyte lines; assay type: cell-based; conditions: in vitro melatonin vs. basal value
Method: (i) in paraffin-embedded liver sections ([…]) from normal and BDL control rats by immunohistochemistry ([…] al., 2009); and (ii) in total RNA (1 μg, by real-time PCR) (Francis et al., 2008) from purified cholangiocytes. […] FACS analysis was performed as described (Onori et al., 2010) using a C6 flow cytometer and analyzed by CFlow Software (Accuri Cytometers Inc. Ann Arbor, Mich.). At least 10,000 events in the light-scatter (SSC/FSC) were acquired. The expression of the selected protein was identified and gated on FL1-A/Count plots. The relative quantity of the selected protein (mean selected protein fluorescence) was expressed as mean FL1-A (samples)/mean FL-1A (secondary antibodies only).

CLOCK gene = experiment: CLOCK expression by qPCR in CCA lines after melatonin; assay type: cell-based, human; conditions: melatonin 10-11 M for 48 hours
Method: Methods: Melatonin immunoreactivity, the expression of melatonin biosynthesis enzymes and receptors were assessed by immunohistochemistry in tissue arrays from normal and CCA patients, and by qPCR and immunoblots in intra-hepatic and extra-hepatic CCA cell lines, and a normal cholangiocyte line (H69). Proliferation was evaluated in vitro by MTS assay in CCA lines and H69 after treatment with melatonin (10-7 to 10-11 M, 24-72 hours). In parallel, the expression of CLOCK after melatonin treatment (10-11 M for 48 hours) was assessed in CCA lines and normal cholangiocytes by qPCR.

[2] = Liver and body weight of nude mice bearing Mz-ChA-1 tumors; assay type: in vivo, nude (nu/nu) mice; conditions: 4 mg/kg BW IP three times a week
Method: Experiments were performed to evaluate the in vivo effect of melatonin on the growth of cholangiocarcinoma cell lines implanted in the flanks of athymic mice (Francis H et al., 2009). Male BALB/c 6-wk-old nude (nu/nu) mice (Taconic Farms. Hudson, N.Y.) were kept in a temperature-controlled environment (20-22° C.) with 12-hr light-dark cycles, fed ad libitum standard mouse chow, and with free access to drinking water. Mz-ChA-1 cells (5×10^6) were suspended in 0.2 ml of extracellular matrix gel and injected subcutaneously in the rear flanks of the nude mice. After the establishment of the tumor (one week with a tumor size of ˜5 mm^3) mice (n=4) were treated with vehicle (5% ethanol in water) or melatonin (4 mg/kg BW, dissolved in 5% aqueous ethanol solution) (Sewerynek et al., 1995) by IP injections three times a week. Tumor variables were measured three times a week by an electronic caliper, and volume was determined as follows: tumor volume (mm^3)=0.5×[length (mm)×width (mm)×height (mm)]. The measurements started from the first week when the tumor mass was established. After 43 days of treatment, were anesthetized with sodium pentobarbital (50 mg/kg BW IP) and tumor tissues were harvested from the flanks of the mice. Heart, liver, and kidney tissues were collected for evaluation of organ damage by H&E staining of paraffin-embedded sections ([…]). All experiments were conducted under the guidelines of the Scott & White and Texas A&M HSC IACUC Committee. Tumors were allowed to grow until maximum allowable tumor burden was reached as set forth by the Scott & White and Texas A&M HSC IACUC tumor burden policy. Tumor tissues were fixed for 4 hr in 10% buffered formalin and embedded in low-temperature fusion paraffin. […] Semiquantitative analysis for these markers was evaluated by image-analysis software, Image-Pro Plus (Media Cybernetics, Silver Springs, Md.) (Lejeune et al., 2008). Three randomly chosen fields were calculated for statistics.

miR-141 = experiment: miRNA microarray expression profiling in BDL rat liver; conditions: reduced in BDL; after melatonin treatment in vivo
Excerpt: Background: microRNAs (miRNAs) are small non-coding RNAs that have been implicated in the pathology of cholestatic liver injuries. After bile duct ligation (BDL), there is enhanced biliary proliferation and intrahepatic bile duct mass (IBDM). The inventors have previously shown that: i) cholangiocytes produce melatonin and express Clock genes and that ii) melatonin inhibits in vitro and in vivo the growth of cholangiocytes and cholangiocarcinoma cell lines by modulation of the CLOCK genes. Thus, in certain aspects miRNA regulates the expression of CLOCK genes and subsequently alters the proliferation of cholangiocytes after BDL. Methods: miRNA expression in normal and BDL rat liver was evaluated using hybridization based microRNA microarray. Mouse cholangiocytes (NMCs) were used for the experiments in vitro. mRNA expression was quantitated by real-time PCR analysis and protein expression was detected by Western blot. Results: […] Bioinformatics and dual-luciferase reporter assays identified Clock and cryptochrome 1 (Cry1), a blue light-dependent regulator of the circadian feedback loop, as the direct targets of miR-141. […] Targeting of […] during cholestatic liver injuries provides an important therapeutic strategy in the regulation of cholangiocytes proliferation through the regulation of Clock and Cry 1 expression.

For `COc1ccc2[nH]cc(CCNC(C)=O)c2c1` [melatonin], the “Effect of secretin on cAMP levels of large cholangiocytes” value (large cholangiocytes) was “did not enhance”, the “Expression of MT1 and MT2 (FACS)” value [1] was “decreased” and the “Expression of PER1, BMAL1, CRY1 and CLOCK (FACS)” value [1] was “decreased”. For the same compound, the “Increase in levels of the CLOCK gene in CCA cells” value (CLOCK gene) was about 50%, the Body weight [2] was 35.25 ± 0.73 gm and the Liver to body [2] was 8.01% ± 0.21. For the same compound, the Liver weight [2] was 2.82 ± 0.13 gm and the “miR-141 expression in BDL rat liver” value (miR-141) was “recovered”.
